≈ marks a conversion by molar mass, not a printed value. Where two headings read alike, the source gives them in different places.

Assay [1] concerns Peptostreptococcus anaerobius. The assay can be described thus: anaerobic liquid culture growth inhibition, OD 650 nm. The class given is cell-based. To be noted: read-out: IC50 Peptostreptococcus anaerobius.
A further assay has as its system Fusobacterium nucleatum. The assay is described as above. It counts as cell-based. Particulars: read-out: IC50 Fusobacterium nucleatum.
The subject of another assay is Bacteroides levii. The assay is described as above. It counts as cell-based. To be noted: Porphyromonas levii, read-out: IC50 Bacteroides levii.
A further assay concerns Clostridium perfringens. The assay can be described thus: microbe, parasite or virus in culture. It counts as cell-based. Particulars: read-out: IC50 Clostridium perfringens.
For assay [2], the system named is P. gingivalis strain 2561. The assay can be described thus: minimum inhibitory concentration by addition to plating medium. To be noted: for MIC: Porphyromonas gingivalis, 2561, 168 h. The class given is cell-based. As for the experimental part: (§1) Solutions of the agents were tested for activity against Escherichia coli strain DH5α by a zone inhibition method, and against P. gingivalis strain 2561 by addition to plating medium to determine minimum inhibitory concentrations (M/C). For the zone inhibition study, a suspension of E. coli was spread on the surface of an agar plate. A 3 mm diameter paper disk was placed on the seeded agar surface, and 10 μl of solution of each compound formulated at 1 mg/ml was added to the disk. Plates were incubated overnight at 37° C. The radius of the zone of inhibition was measured from the center of the disk to the edge of the E. coli bacterial lawn. For determination of MIC, drug solutions were mixed with plating medium to produce a range of final drug concentrations. Media with drug were plated in the wells of 24-well plates. A drop of bacterial suspension containing 2-5×10^2 CFU P. gingivalis was placed on each well. Plates were incubated 1 week in an anaerobic chamber at 37° C.

The subject of assay [3] is Porphyromonas gingivalis RB-22D-1. The experiment in a line: anaerobic liquid culture growth inhibition, OD 650 nm. The class given is cell-based.
Assay [4] deals with Porphyromonas gingivalis 2561. The assay is described as above. It counts as cell-based.
The subject of a further assay is Bacteroides fragilis. Described as above. To be noted: read-out: IC50 Bacteroides fragilis. It counts as cell-based.
For assay [5], the system named is Escherichia coli strain DH5α. The experiment in a line: zone inhibition method on agar plate. It counts as cell-based. Particulars: 10 μl of 1 mg/ml on 3 mm paper disk, overnight 37° C., radius from center of disk; for zone of inhibition at 1000 µg/mL: Escherichia coli, read-out: E. coli Clear Zone. As for the experimental part: as §1
Assay [6] has as its system Fusobacterium necrophorum. The experiment in a line: anaerobic liquid culture growth inhibition, OD 650 nm. The class given is cell-based. To be noted: read-out: IC50 Fusobacterium necrophorum.
For the next assay, the system named is A. act and/or P. gin. To be noted: background summary; cited from earlier work.
For the next assay, the system named is P. gingivalis. The experiment in a line: bone loss after oral colonization with P. gingivalis in mice, systemic administration. It counts as in vivo, BALB/c mice. The method, then:
An animal model for testing the antimicrobial activity of the invention against P. gingivalis was conducted by inducing oral colonization of the microbe in BALB/c mice. Drug (2-methylphenazine-5,10-dioxide or Tetracycline) or control (2.5% cyclodextran) was administered intraperitoneally once each day for 25 days (2-methylphenazine-5,10-dioxide) or 40 days (Tetracycline). On the day following the last dose administration, the rear molars of the mice were swabbed and the swabs incubated in a growth medium to assess the presence of P. gingivalis. Mice were then sacrificed and jaw bones harvested for evaluation of bone loss.

Assay [7] has as its system anaerobic bacterial species. The experiment in a line: anaerobic liquid culture growth inhibition, whole panel. The class given is cell-based. To be noted: all species of Table 4; read-out: susceptibilities (IC50) of the various anaerobic species. The method, then:
The concentrations of the various preferred substituted phenazine-5,10-dioxide compounds necessary to inhibit growth by 50% (IC50 values) were determined for a variety of anaerobic bacterial species. Compounds were individually diluted into liquid growth media, which along with suspensions of bacterial monocultures were added to the wells of 96-well plates. Cultures were incubated anaerobically overnight, and growth was assessed by measuring optical density at 650 nm. IC50 values were determined as the compound concentration producing a turbidity reading equal to 50% of the maximum. Again, results with Tetracycline are shown for comparison.

Assay [8] relates to purified collagenase from P. gingivalis. The experiment in a line: anti-collagenase activity, 3H-collagen hydrolysis. The class given is biochemical. Particulars: for % Inhibition of collagenase: 24 h at 25° C. As for the experimental part: Collagenase activity in the presence of the preferred compound 2-aminophenazine-5,10-dioxide and in the presence of Tetracycline were measured by incubating ^3 H-collagen with purified collagenase from P. gingivalis using increasing drag concentrations. After 24 h at 25° C., unhydrolyzed collagen fibers were removed from the mixture by centrifugation, and the specific activity of ^3 H in the supernatant quantified as a measure of hydrolyzed collagen. Percent inhibition was determined by subtracting the value in the presence of test compound from the control value, then dividing this quantity by the control value [(control-compound)/control×100].

Setting [9] is: RB22D1, anaerobic overnight, OD 650 nm, read-out: IC50 Porphyromonas gingivalis RB-22D-1.
[10] abbreviates: Porphyromonas gingivalis, 2561, anaerobic overnight, OD 650 nm, read-out: IC50 Porphyromonas gingivalis 2561.
The mark [11] stands for this setting: MIC on a molar basis, read-out: P. gingivalis MIC.
Where [12] appears, read: complete inhibition of growth, 1 week anaerobic, 37° C., read-out: P. gingivalis MIC.

Turning to `[O-][n+]1c2ccccc2[n+]([O-])c2cc(O)c(O)cc21` [2,3-dihydroxyphenazine-5,10-dioxide], the IC50 in [1] (anaerobic overnight, OD 650 nm) is above 10 µg/mL; with Fusobacterium nucleatum (anaerobic overnight, OD 650 nm) it was above 10 µg/mL; in the assay on Bacteroides levii (anaerobic overnight, OD 650 nm), above 10 µg/mL; in the assay with Clostridium perfringens, above 10 µg/mL; in assay [3] (setting [9]), 2 µg/mL (≈ 8.19 µM); in assay [4] (setting [10]), 5 µg/mL (≈ 20.5 µM). Further, the IC50 with Bacteroides fragilis (anaerobic overnight, OD 650 nm) was above 10 µg/mL; in assay [6] (anaerobic overnight, OD 650 nm), above 10 µg/mL. Further, the “antimicrobial activity against P. gingivalis” value in [2] was “inactive”. Besides, in assay [2] (MIC on a molar basis), the “P. gingivalis MIC (μM)” value is “inactive”. For the same compound, the “P. gingivalis MIC” value in assay [2] (complete inhibition of growth, 1 week anaerobic, 37° C.) is “inactive”. Moreover, the “E. coli Clear Zone” value in [5] was “inactive”.
On to `COc1ccc2c(c1)[n+]([O-])c1ccc(N)cc1[n+]2[O-]` [2-amino-7-methoxyphenazine-5,10-dioxide, 2-amino,7-methoxyphenazine-5,10-dioxide], for which the figures for the IC50 in [3] (setting [9]) and in [4] (setting [10]) were 0.08 µg/mL (≈ 0.311 µM) and 0.015 µg/mL (≈ 0.0583 µM), respectively.
`[O-][n+]1c2ccccc2[n+]([O-])c2c3cccnc3c(O)cc21` [2-hydroxy-3,4-iminopropylphenazine-5,10-dioxide]: the IC50 in assay [1] (anaerobic overnight, OD 650 nm) is 0.1 µg/mL (≈ 0.358 µM); in the assay with Fusobacterium nucleatum (anaerobic overnight, OD 650 nm) it was above 10 µg/mL; in the assay on Bacteroides levii (anaerobic overnight, OD 650 nm) it was 2 µg/mL (≈ 7.16 µM); in the assay with Clostridium perfringens it was 0.1 µg/mL (≈ 0.358 µM); in assay [3] (setting [9]), 0.18 µg/mL (≈ 0.645 µM); in [4] (setting [10]) it was 0.08 µg/mL (≈ 0.286 µM). The IC50 in the assay on Bacteroides fragilis (anaerobic overnight, OD 650 nm) stood at 1 µg/mL (≈ 3.58 µM); in [6] (anaerobic overnight, OD 650 nm), 6.5 µg/mL (≈ 23.3 µM). Also, the MIC in assay [2] (setting [11]) is 0.112 µM; in assay [2] (setting [12]), 0.031 µg/mL. Also, in [5], the zone of inhibition at 1000 µg/mL turned out to be 17 mm.
Take `[O-][n+]1c2ccccc2[n+]([O-])c2cc(O)ccc21` [2-hydroxyphenazine-5,10-dioxide]: the IC50 was 0.45 µg/mL (≈ 1.97 µM) in [1] (anaerobic overnight, OD 650 nm); above 10 µg/mL in the assay on Fusobacterium nucleatum (anaerobic overnight, OD 650 nm); 0.2 µg/mL (≈ 0.876 µM) in the assay with Bacteroides levii (anaerobic overnight, OD 650 nm); 1 µg/mL (≈ 4.38 µM) in the assay with Clostridium perfringens; 0.22 µg/mL (≈ 0.964 µM) in assay [3] (setting [9]); 0.62 µg/mL (≈ 2.72 µM) in [4] (setting [10]). Besides, the IC50 was found to be 5 µg/mL (≈ 21.9 µM) with Bacteroides fragilis (anaerobic overnight, OD 650 nm) and 0.45 µg/mL (≈ 1.97 µM) in assay [6] (anaerobic overnight, OD 650 nm). Further, the MIC in [2] (setting [11]) was found to be 0.07 µM; in assay [2] (setting [12]), 0.016 µg/mL. Moreover, in assay [2] (molar basis), the “concentration range of activity against P. gingivalis” value is “nanomolar concentration range”. The zone of inhibition at 1000 µg/mL in assay [5] was 15 mm.
Regarding `CC1(C)S[C@@H]2[C@H](NC(=O)[C@H](N)c3ccc(O)cc3)C(=O)N2[C@H]1C(=O)O` [Amoxicillin], in the assay with A. act and/or P. gin, the “Activity against A. act and/or P. gin” value was “ineffective”.
For the compound `Cc1ncc([N+](=O)[O-])n1CCO` [Metronidazole], the “Activity against A. act and/or P. gin” value with A. act and/or P. gin is reported as “ineffective”.
For `CC1(C)S[C@@H]2[C@H](NC(=O)Cc3ccccc3)C(=O)N2[C@H]1C(=O)O` [Penicillin G], in the assay with A. act and/or P. gin, the “Activity against A. act and/or P. gin” value is “ineffective”.
For `CN(C)[C@@H]1C(O)=C(C(N)=O)C(=O)[C@@]2(O)C(O)=C3C(=O)c4c(O)cccc4[C@@](C)(O)[C@H]3C[C@@H]12` [Tetracycline, reference compound], the IC50 in assay [1] was 0.03 µg/mL (≈ 0.0675 µM); in the assay with Fusobacterium nucleatum, 0.16 µg/mL (≈ 0.36 µM); in the assay with Bacteroides levii it was 0.1 µg/mL (≈ 0.225 µM); in the assay on Clostridium perfringens, 0.06 µg/mL (≈ 0.135 µM); in assay [3] (RB22D1, read-out: IC50 Porphyromonas gingivalis RB-22D-1) it was 0.06 µg/mL (≈ 0.135 µM); in assay [4] (Porphyromonas gingivalis, 2561, read-out: IC50 Porphyromonas gingivalis 2561), 0.02 µg/mL (≈ 0.045 µM). Moreover, the IC50 in the assay on Bacteroides fragilis was 0.1 µg/mL (≈ 0.225 µM); in [7] it was at most 0.1 µg/mL; in [6], 0.03 µg/mL (≈ 0.0675 µM). Also, the MIC in [2] (read-out: P. gingivalis MIC) worked out at 0.5 µg/mL; in assay [2] (read-out: P. gingivalis MIC (μM)), 1.13 µM. Moreover, the “Bone Loss (BLU) Average ± SD” value with P. gingivalis (Bacterial Infection, 5 mg/kg intraperitoneally once each day × 40 d, 0.33 mm = 1 BLU) stood at 7.21 ± 0.73 BLU. Moreover, the “effect of treatment on bone loss” value with P. gingivalis (infected mice, IP daily, 25 d (2-methylphenazine-5,10-dioxide) or 40 d (Tetracycline)) was “did not effect the bone loss”. For the same compound, the “% Inhibition of collagenase” value turned out to be 7.6% in assay [8] (1 μg/ml), 31% in [8] (10 μg/ml) and 68% in [8] (100 μg/ml). For the same compound, the “anti-collagenase IC50” value in assay [8] (estimated from Table 5) is “about 56 μg/ml”. Moreover, in [5], the zone of inhibition at 1000 µg/mL came to 10 mm.
Turning to `[O-][n+]1c2ccccc2[n+]([O-])c2ccccc21` [phenazine-5,10-dioxide], the IC50 came out at 0.2 µg/mL (≈ 0.942 µM) in [1] (anaerobic overnight, OD 650 nm); 3.5 µg/mL (≈ 16.5 µM) with Fusobacterium nucleatum (anaerobic overnight, OD 650 nm); 2.5 µg/mL (≈ 11.8 µM) in the assay on Bacteroides levii (anaerobic overnight, OD 650 nm); 1 µg/mL (≈ 4.71 µM) with Clostridium perfringens; 3 µg/mL (≈ 14.1 µM) in the assay with Bacteroides fragilis (anaerobic overnight, OD 650 nm); 0.45 µg/mL (≈ 2.12 µM) in assay [6] (anaerobic overnight, OD 650 nm). Also, the MIC was found to be 0.296 µM in assay [2] (setting [11]) and 0.063 µg/mL in [2] (setting [12]). Moreover, the zone of inhibition at 1000 µg/mL in assay [5] was determined as 19 mm.

In general, IC50 refers to the concentration needed to halve the response being measured. The MIC is the smallest concentration in the dilution series that meets the test's criterion for growth inhibition.
